Laboratory results published in the supplement of paper PMC8882468.

Tested on: HCI-002 (organoid from a triple-negative breast cancer xenograft)
Assay: CTG-3D luminescence at 96 h relative to day-0 seeding control (ratio to day 0); higher = more growth / less cytotoxicity; PDxO 3D drug screen (set 2), 96 h, CTG-3D normalised to day-0 seeding control.
[1] = 0.00025 µM, days in culture: 127
[2] = 0.00025 µM, days in culture: 155
[3] = 0.00025 µM, days in culture: 168

| Structure (SMILES) | CTG-3D luminescence at 96 h (12.5 pM, days in culture: 127) | CTG-3D luminescence at 96 h (12.5 pM, days in culture: 155) | CTG-3D luminescence at 96 h (12.5 pM, days in culture: 168) | CTG-3D luminescence at 96 h [1] | CTG-3D luminescence at 96 h [2] | CTG-3D luminescence at 96 h [3] | CTG-3D luminescence at 96 h (0.005 µM, days in culture: 127) | CTG-3D luminescence at 96 h (0.005 µM, days in culture: 155) | CTG-3D luminescence at 96 h (0.005 µM, days in culture: 168) | CTG-3D luminescence at 96 h (0.1 µM, days in culture: 127) | CTG-3D luminescence at 96 h (0.1 µM, days in culture: 155) | CTG-3D luminescence at 96 h (0.1 µM, days in culture: 168) | CTG-3D luminescence at 96 h (1 µM, days in culture: 127) | CTG-3D luminescence at 96 h (1 µM, days in culture: 155) | CTG-3D luminescence at 96 h (1 µM, days in culture: 168) | CTG-3D luminescence at 96 h (10 µM, days in culture: 127) | CTG-3D luminescence at 96 h (10 µM, days in culture: 155) | CTG-3D luminescence at 96 h (10 µM, days in culture: 168) | CTG-3D luminescence at 96 h (100 µM, days in culture: 127) | CTG-3D luminescence at 96 h (100 µM, days in culture: 155) | CTG-3D luminescence at 96 h (100 µM, days in culture: 168) | CTG-3D luminescence at 96 h (625 fM, days in culture: 127) | CTG-3D luminescence at 96 h (625 fM, days in culture: 155) | CTG-3D luminescence at 96 h (625 fM, days in culture: 168) |
| --- | --- | --- | --- | --- | --- | --- | --- | --- | --- | --- | --- | --- | --- | --- | --- | --- | --- | --- | --- | --- | --- | --- | --- | --- |
| CO[C@H]1C[C@@H]2CC[C@@H](C)[C@@](O)(O2)C(=O)C(=O)N2CCCC[C@H]2C(=O)O[C@H]([C@H](C)C[C@@H]2CC[C@@H](OCCO)[C@H](OC)C2)CC(=O)[C@H](C)/C=C(\C)[C@@H](O)[C@@H](OC)C(=O)[C@H](C)C[C@H](C)/C=C/C=C/C=C/1C [everolimus] | 1.87 | 3.94 | 3.61 | 2.27 | 3.58 | 3.15 | 2.16 | 4.06 | 3.32 | 2.43 | 4.09 | 2.37 | 2.17 | 2.96 | 2.67 | 2.2 | 2.78 | 2.73 | -0.00603 | -0.00382 | -0.000729 | 2.25 | 3.53 | 3.88 |
| CCOc1ccn(-c2ccc(F)cc2)c(=O)c1C(=O)Nc1ccc(Oc2ccnc(N)c2Cl)c(F)c1 [ASLAN002] | 2.57 | 4.58 | 3.23 | 3.09 | 5.63 | 3.24 | 2.93 | 6.16 | 4.54 | 3.28 | 6.6 | 3.38 | 2.8 | 5.32 | 4.12 | 2.96 | 3.84 | 2.92 | 1.67 | 1.94 | 0.58 | 2.9 | 4.85 | 3.92 |
| C[C@@H](Nc1cc(F)cc(F)c1)c1cc(C(=O)N(C)C)cc2c(=O)cc(N3CCOCC3)oc12 [AZD-8186] | 2.49 | 4.16 | 3.35 | 2.9 | 4.76 | 3.58 | 3.08 | 5.31 | 4.3 | 3.46 | 5.43 | 3.62 | 2.69 | 4.16 | 3.22 | 2.62 | 3.89 | 2.87 | 1.37 | 1.67 | 0.73 | 2.78 | 4.15 | 4.14 |
| COc1cccc2c1C(=O)c1c(O)c3c(c(O)c1C2=O)C[C@@](O)(C(=O)CO)C[C@@H]3O[C@H]1C[C@H](N)[C@@H](O)[C@H](C)O1 [epirubicin] | 2.39 | 5.42 | 3.2 | 2.93 | 5.17 | 3.41 | 2.65 | 4.75 | 3.79 | 2.23 | 2.9 | 1.24 | 0.362 | 0.251 | 0.0925 | 0.034 | 0.0733 | 0.0935 | -0.0164 | -0.011 | -0.00758 | 3.16 | 4.45 | 3.54 |
| CC(=O)c1c(C)c2cnc(Nc3ccc(N4CCNCC4)cn3)nc2n(C2CCCC2)c1=O [palbociclib] | 2.7 | 4.87 | 3.15 | 3.03 | 4.92 | 3.17 | 2.72 | 5.53 | 3.77 | 3.1 | 4.73 | 2.95 | 2.26 | 3.5 | 3.02 | 2.38 | 3.42 | 2.23 | 2.33 | 2.36 | 1.63 | 2.77 | 5.36 | 4.09 |
| O=C(c1cc(Cc2n[nH]c(=O)c3ccccc23)ccc1F)N1CCN(C(=O)C2CC2)CC1 [olaparib] | 2.26 | 4.7 | 3.4 | 2.88 | 4.7 | 3.26 | 2.92 | 5.6 | 4.03 | 2.97 | 6.16 | 3.35 | 2.45 | 4.47 | 3.14 | 2.59 | 2.8 | 2.04 | 2.23 | 2.34 | 1.7 | 2.54 | 4.33 | 3.55 |
